Laboratory results as given in US20260224516A1, “PHARMACEUTICAL FOR TREATING OR PREVENTING CHEMOTHERAPY-INDUCED PERIPHERAL NEUROPATHY” (NIPPON CHEMIPHAR CO., LTD., priority 2023, published 2026).

Key:
[1] = system: oxaliplatin-induced peripheral neuropathy model mice; assay: Oxaliplatin-induced mouse neuropathic pain model (Example 7): mechanical allodynia, Uralyt and sodium bicarbonate; format: in vivo, male C57BL/6J mice; details: 0.75 g/kg sodium bicarbonate oral twice per day for 13 days; OXP 3 mg/kg i.p. single dose; FIG. 14: day 10
Protocol: (§1) For the alkalinizing agent, the same test substance as Example 1 and sodium bicarbonate (in this description also referred to as baking soda, manufactured by Tokyo Chemical Industry Co., Ltd., purity: at least 99.0%) were used. Following weighing of the required amount of the sodium bicarbonate, sufficient injection water was added to dissolve the sodium bicarbonate and prepare a solution of the target concentration at the time of use.
(§2) In the Sham group and the control group, the injection water used as the solvent for the alkalinizing agent was used.
(§3) The same type of animals as Example 1 were used. Specifically, six-week old male C57BL/6J mice (from Japan SLC, Inc.) were used. The animals were provided with an approximately one-week acclimatization period, and only healthy individuals were then selected for testing. […]
(§4) Grouping was conducted using the pain-related scores evaluated on the day prior to starting the test (the day prior to test substance administration) as a reference, and specifically, by dividing the individuals into each of the groups to ensure the same averaged pain-related score for each group. […]
Following the OXP administration, the level of pain was evaluated over time. […] A pain evaluation was also conducted on a day prior to the start of alkalinizing agent administration, and this evaluation was recorded as the Pre value. […]

[2] = system: paclitaxel-induced peripheral neuropathy model mice; assay: Paclitaxel-induced mouse neuropathic pain model (Example 8): mechanical allodynia, Uralyt and sodium bicarbonate; format: in vivo, male C57BL/6J mice; details: 0.75 g/kg sodium bicarbonate oral twice per day for 17 days; PTX 5 mg/kg i.p. single dose; FIG. 16: day 14
Protocol: as §1, §2, §3, §4
Following the PTX administration, the level of pain was evaluated over time. […] A pain evaluation was also conducted on a day prior to the start of alkalinizing agent administration, and this evaluation was recorded as the Pre value. […]

O=C([O-])O.[Na+] [sodium bicarbonate]
onset of mechanical allodynia (pain-related score) [1]: suppressed the onset of mechanical allodynia, but the effect was smaller than that observed for the Uralyt administration group
onset of mechanical allodynia (pain-related score) [2]: suppressed the onset of mechanical allodynia, but the effect was smaller than that observed for the Uralyt administration group
